This is an account of results in patent publication US20210315893A1 (Galapagos NV, priority 2017, published 2021).

The target of assay [1] is T1, human GPCR sphingosine 1-phosphate receptor 2 (Homo sapiens, UniProt O95136).
T1 construct: host or cells: CHO
The assay can be described thus: S1PR2 antagonist Ca2+ flux assay. The class given is cell-based. Particulars: antagonist mode, CHO-S1PR2 cells, S1P at EC80, Ca2+ fluorescence; read-out: S1P2 EC50 (nM), S1P2 antagonist EC50. A digest of the protocol:
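Antagonist mode: 15 min after compound addition, S1P (EC80) stimulates Fluo8-loaded, 1 h-starved CHO-S1PR2 cells, Ca2+ read over 3 min; a prior 3-min read checks compound agonism. EC50 from peak/baseline fluorescence ratio, normalised versus vehicle and S1P EC50 (antagonist) or EC100 (agonist).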

For assay [2], the target named is T2, human GPCR sphingosine 1-phosphate receptor 1 (Homo sapiens, UniProt P21453).
T2 construct: host or cells: CHO
The experiment in a line: S1PR1 selectivity Ca2+ flux assay (antagonist readout). Particulars: antagonist readout, CHO cells overexpressing human S1PR1 and Gq, S1P at EC80 (6 nM); read-out: S1P1 EC50 (nM), S1P1 antagonist EC50. In kind it is cell-based. A digest of the protocol: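 Antagonist mode: S1P challenge follows 15 min compound preincubation at 37 °C. Cells are CHO stably expressing human S1PR1, serum-starved 1 h (0.1% FAF BSA), loaded with Fluo 8. Peak-over-baseline fluorescence ratio is normalized to positive/negative controls; IC50 from logistic curve fit.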
For orientation: Calcium assays in cells follow changes in intracellular calcium, usually with a dye or a luminescent sensor.

In assay [3] the target is T3, human GPCR sphingosine 1-phosphate receptor 5 (Homo sapiens, UniProt Q9H228).
T3 construct: host or cells: CHO
The assay can be described thus: S1PR5 selectivity Ca2+ flux assay (antagonist readout). In kind it is cell-based. Particulars: CHO cells overexpressing human S1PR5 and Gq, agonist at EC80 (20 nM), read-out: S1P5 EC50 (nM), S1P5 antagonist EC50. An excerpt:
To evaluate the selectivity of the compounds for S1PR2 over S1PR1 and S1PR5, asimilar assay set upas described above for theS1PR2 calcium flux assays waspeformed: CHO cells stably overexpressing human GPCR sphingosine 1-phosphate receptor 1 and Gq protein (Euroscreen, FAST-0197A) or overexpressing human GPCR sphingosine 1-phosphate receptorS5 and Gq protein were used (Perkin Elmer, ES-593-A). In case of the S1PR5 assay triggering was done with an SPR5 specific agonist instead of with S1P (Hobson et al., 2015).
50 μL of Chinese hamster ovary (CHO) cells stably overexpressing human S1PR1 or S1PR5 are seeded in 384 well sterile microplates (7,500 cells/well or 10,000 cells/well respectively) and are incubated overnight at 37° C. under 5% CO2. Cells are subsequently washed twice with 25 μL/well of starvation medium (F-12 Ham's medium containing 0.1% fatty acid free bovine serum albumin (FAF BSA)). After one h starvation at 37° C., 5% CO2, cells are loaded with 25 μL of Fluo 8 dye diluted in Hank's balanced salt solution (HBSS) with 20 mM Hepes complemented with 5 mM of probenecid following the recommendations of the manufacturer (one h at 37° C., 5% CO2). Dilution series of compounds are prepared in HBSS buffer with 20 mM Hepes and 0.1% BSA (FAF). 10 μL of diluted compound is added to the cells using the FDSS/pCELL and intracellular calcium changes are measured immediately by recording fluorescence during 3 min (agonist readout). The ratio of maximal signal over background before compound injection is used to determine compound response.
After an incubation of 15 min at 37° C., following the agonist readout, the plates are transferred to the FDSS/pCELL reader. Cells are stimulated with 10 μL of EC80 concentration of S1P (6 nM for S1P1 and 20 nM for S1P5) and intracellular calcium changes are measured immediately by recording fluorescence during three min (antagonist readout). The ratio of maximal signal over background before S1P injection was used to determine the inhibitory effect ofthe compound.
Raw data obtained in each experiment (ratio of maximal signal over background for calcium mobilization assays) were normalized in percentage of activation (agonist mode) or inhibition (antagonist mode) using positive and negative experiment controls. Each individual plate quality was assessed by evaluation of Z′ factor calculated with raw data using the following equation
Y=bottom+(top−bottom)/(1+(10^(Log IC50−X)*Hillslope)) where X is the logarithm of the concentration of the compound

For a further assay, the target named is T4, S1PR2 (Homo sapiens, UniProt O95136).
T4 construct: expressed in transfected cells
The assay can be described thus: S1PR2 binding assay (competition with radioactively labeled S1P, SpA). Particulars: membranes from stable cell line over expressing S1PR2, SpA beads; read-out: S1P2 EC50 (nM), S1PR2 binding EC50. In short, it runs like this: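 Scintillation proximity read-out after 2 h room-temperature incubation of compound, [3H]S1P and S1PR2-overexpressing cell membranes on WGA-coated beads. Buffer: 20 mM Tris pH 7.5, 100 mM NaCl, 10 mM MgCl2, 1 mM Na3VO4, 0.4% fatty-acid-free BSA; plates counted immediately after centrifugation.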

In assay [4] the test system is HFL-1 cells. The experiment in a line: IL-8 production assay (S1P induced IL-8). Particulars: Homo sapiens, HFL1; S1P (1 μM) induced IL-8 in HFL-1 cells, starvation medium without HSA; read-out: IL8 EC50. In kind it is cell-based. A digest of the protocol:
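HFL-1 fibroblasts in low-serum medium were pretreated 1 h with a 10-point 1/3 series of compound starting at 30 μM (0.3% DMSO).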

The test system of assay [5] is HFL-1 cells. The assay can be described thus: IL8 assay in the presence of Human Serum Albumin. Particulars: HFL1, read-out: HSA IL8 EC50.
Method: To evaluate the influence of plasma protein binding of S1P as well as compound, the S1P induced IL-8 levelswereevaluatedin presence of Human Serum Albumin (HSA, equivalent to 40% human serum).
Human Fetal Lung cells (HFL-1) are seeded in 96 well plates in growth medium (F12K+10% heat inactivated FBS+1% Pen/strep). […] On day three, compounds are added (10 point serial dilution, 30 μM highest concentration, 1/3 dilution, 0.3% DMSO final) and plates are incubated for 1 h at 37° C., 5% CO2. Subsequently S1P at 5 μM final concentration is added and plates are incubated for 16 to 24 h at 37° C., 5% COafter which the supernatant was collected. IL-8 levels in the supernatant are determined with the IL-8 ELISA of R&D systems.

T2 sequence (P21453 whole entry): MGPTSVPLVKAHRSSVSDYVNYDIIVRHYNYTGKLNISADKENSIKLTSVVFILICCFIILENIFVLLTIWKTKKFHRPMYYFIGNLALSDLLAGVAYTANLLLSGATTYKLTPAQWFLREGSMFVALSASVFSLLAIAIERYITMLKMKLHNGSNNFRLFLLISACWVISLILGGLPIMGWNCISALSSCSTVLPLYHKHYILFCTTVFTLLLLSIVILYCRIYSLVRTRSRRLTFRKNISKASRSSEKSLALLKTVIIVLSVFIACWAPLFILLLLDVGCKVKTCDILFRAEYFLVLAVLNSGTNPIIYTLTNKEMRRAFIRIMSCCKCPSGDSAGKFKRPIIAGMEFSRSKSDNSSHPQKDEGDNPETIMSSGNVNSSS
T3 sequence (Q9H228 whole entry): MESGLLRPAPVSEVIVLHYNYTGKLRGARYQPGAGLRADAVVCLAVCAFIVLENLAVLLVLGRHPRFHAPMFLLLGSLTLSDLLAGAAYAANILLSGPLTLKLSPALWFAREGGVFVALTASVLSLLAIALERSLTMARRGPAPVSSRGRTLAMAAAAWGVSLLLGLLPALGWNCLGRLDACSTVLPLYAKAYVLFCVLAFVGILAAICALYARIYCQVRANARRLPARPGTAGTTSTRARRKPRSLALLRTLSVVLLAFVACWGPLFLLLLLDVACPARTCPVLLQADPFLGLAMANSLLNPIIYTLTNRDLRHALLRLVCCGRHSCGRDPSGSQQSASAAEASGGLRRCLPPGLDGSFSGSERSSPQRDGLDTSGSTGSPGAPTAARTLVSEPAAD
T4 sequence (O95136 whole entry): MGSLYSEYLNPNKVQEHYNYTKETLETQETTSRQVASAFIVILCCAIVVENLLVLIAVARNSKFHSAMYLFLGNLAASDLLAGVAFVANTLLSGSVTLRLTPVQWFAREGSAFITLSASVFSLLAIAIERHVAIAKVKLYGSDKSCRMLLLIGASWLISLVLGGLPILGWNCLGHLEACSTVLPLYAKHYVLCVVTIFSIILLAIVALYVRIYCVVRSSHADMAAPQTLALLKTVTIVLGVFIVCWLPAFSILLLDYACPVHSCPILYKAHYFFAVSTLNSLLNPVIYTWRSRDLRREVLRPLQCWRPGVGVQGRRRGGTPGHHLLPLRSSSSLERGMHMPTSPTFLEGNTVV
T1 sequence (O95136 whole entry): as above

One may read the EC50 as the midpoint of the concentration-response curve. As for `O=c1c2ccccc2c(Cc2nc3cc(Cl)c(OC(F)(F)F)cc3[nH]2)nn1C1CC1` [Compound 25, 4-[[5-chloro-6-(trifluoromethoxy)-1H-benzimidazol-2-yl]methyl]-2-cyclopropyl-phthalazin-1-one], the EC50 in assay [1] was found to be 218 nM; in assay [2], 4710 nM; in assay [3], 4790 nM; on S1PR2, 565 nM; in the assay on HFL-1 cells [4], 836 nM; in the assay with HFL-1 cells [5], 10000 nM.
`O=c1c2ccccc2c(Cc2nc3cc(Cl)c(OCC(F)F)cc3[nH]2)nn1C1CC1` [Compound 32, 4-[[5-chloro-6-(2,2-difluoroethoxy)-1H-benzimidazol-2-yl]methyl]-2-cyclopropyl-phthalazin-1-one]: the EC50 in assay [1] was 19.3 nM; in assay [2] it was at least 19800 nM; in assay [3], 6610 nM; at S1PR2 it was 245 nM; in the assay with HFL-1 cells [4] it was 95.7 nM; with HFL-1 cells [5] it was 2960 nM.
Regarding `N#Cc1cc2nc(Cc3nn(C4CC4)c(=O)c4ccccc34)[nH]c2cc1OCC1CC1` [Compound 42, 6-(cyclopropylmethoxy)-2-[(3-cyclopropyl-4-oxo-phthalazin-1-yl)methyl]-1H-benzimidazole-5-carbonitrile], the EC50 in assay [1] is 19.7 nM; in assay [2], at least 19800 nM; in assay [3] it was 19800 nM; at S1PR2, 20.6 nM; in the assay on HFL-1 cells [4] it was 30.9 nM; in the assay with HFL-1 cells [5], 443 nM.
For `N#Cc1cc2[nH]c(Cn3nc(CC(=O)N4CCOCC4)c(=O)c4ccccc43)nc2cc1OCC(F)F` [Compound 49, 6-(2,2-Difluoro-ethoxy)-2-[3-(2-morpholin-4-yl-2-oxo-ethyl)-4-oxo-4H-cinnolin-1-ylmethyl]-3H-enzoimidazole-5-carbonitrile], the EC50 in assay [1] is 32.8 nM; in assay [2] it was at least 19800 nM; in assay [3], 19800 nM; at S1PR2, 92.7 nM; with HFL-1 cells [4] it was 31.7 nM; in the assay on HFL-1 cells [5], 47.1 nM.
`O=C(Cc1nn(Cc2nc3cc(OCC(F)F)c(F)cc3[nH]2)c2ccccc2c1=O)N1CCOCC1` [Compound 50, 1-[5-(2,2-Difluoro-ethoxy)-6-fluoro-1H-benzoimidazol-2-ylmethyl]-3-(2-morpholin-4-yl-2-oxo-ethyl)-1H-cinnolin-4-one]: the EC50 in assay [1] was 195 nM; in assay [2], at least 19800 nM; in assay [3], 19800 nM; at S1PR2, 267 nM; with HFL-1 cells [4], 246 nM; with HFL-1 cells [5], 365 nM.
In the case of `COCCOc1cc2nc(Cc3nn(CC(=O)N4CCOCC4)c(=O)c4ccccc34)[nH]c2cc1C#N` [Compound 51, 6-(2-methoxyethoxy)-2-[[3-(2-morpholino-2-oxo-ethyl)-4-oxo-phthalazin-1-yl]methyl]-3H-benzimidazole-5-carbonitrile], the EC50 in assay [1] was 77.3 nM; in assay [2] it was at least 19800 nM; in assay [3], 19800 nM; on S1PR2 it was 366 nM; in the assay on HFL-1 cells [4], 177 nM; in the assay on HFL-1 cells [5], 291 nM.
As to `CC(F)(F)COc1cc2nc(Cc3nn(CC(=O)N4CCOCC4)c(=O)c4ccccc34)[nH]c2cc1C#N` [Compound 52, 6-(2,2-difluoropropoxy)-2-[[3-(2-morpholino-2-oxo-ethyl)-4-oxo-phthalazin-1-yl]methyl]-3H-benzimidazole-5-carbonitrile], the EC50 in assay [1] was 11.6 nM; in assay [2], at least 19800 nM; in assay [3], 19800 nM; at S1PR2, 105 nM; in the assay on HFL-1 cells [4], 46.7 nM; in the assay on HFL-1 cells [5], 50 nM.
On to `O=c1c2ccccc2c(Cc2nc3cc(Cl)c(OC(F)(F)F)cc3[nH]2)nn1CC1CCNCC1` [Compound 56, 4-[[6-chloro-5-(trifluoromethoxy)-1H-benzimidazol-2-yl]methyl]-2-(4-piperidylmethyl)phthalazin-1-one], for which the EC50 was 839 nM in assay [1]; at least 19800 nM in assay [2]; 19800 nM in assay [3]; 722 nM on S1PR2; 3330 nM with HFL-1 cells [4]; 2930 nM with HFL-1 cells [5].
Consider `O=c1c2ccccc2c(Cc2nc3cc(Cl)c(OC(F)(F)F)cc3[nH]2)nn1CC1CCNC1` (centres unmarked) [Compound 57, 4-[[6-chloro-5-(trifluoromethoxy)-1H-benzimidazol-2-yl]methyl]-2-(pyrrolidin-3-ylmethyl)phthalazin-1-one], for which the concentration for a half-maximal effect (EC50) in assay [1] was 163 nM; in assay [2] it was at least 19800 nM; in assay [3], 19800 nM; at S1PR2, 457 nM; with HFL-1 cells [4] it was 552 nM; in the assay with HFL-1 cells [5], 501 nM.
Consider `O=c1c2ccccc2c(Cc2nc3cc(Cl)c(OC(F)(F)F)cc3[nH]2)nn1C1CCNC1` (centres unmarked) [Compound 59, 4-[[6-chloro-5-(trifluoromethoxy)-1H-benzimidazol-2-yl]methyl]-2-pyrrolidin-3-yl-phthalazin-1-one], for which the EC50 in assay [1] was 94.4 nM; in assay [2], at least 19800 nM; in assay [3], 19800 nM; at S1PR2 it was 42 nM; in the assay with HFL-1 cells [4] it was 98.8 nM; with HFL-1 cells [5], 180 nM.
In the case of `N#Cc1cc2[nH]c(Cc3nn(C4CCNC4)c(=O)c4ccccc34)nc2cc1OCC(F)F` (centres unmarked) [Compound 64, 6-(2,2-difluoroethoxy)-2-[(4-oxo-3-pyrrolidin-3-yl-phthalazin-1-yl)methyl]-3H-benzimidazole-5-carbonitrile], the 50% effective concentration (EC50) in assay [1] was 137 nM; in assay [2], at least 19800 nM; in assay [3], 19800 nM; at S1PR2 it was 131 nM; in the assay with HFL-1 cells [4], 25.6 nM; in the assay with HFL-1 cells [5] it was 33.5 nM.
With `COCCOc1cc2nc(Cc3nn(C4CCNC4)c(=O)c4ccccc34)[nH]c2cc1C#N` (centres unmarked) [Compound 65, 6-(2-methoxyethoxy)-2-[(4-oxo-3-pyrrolidin-3-yl-phthalazin-1-yl)methyl]-3H-benzimidazole-5-carbonitrile], the EC50 in assay [1] is 2080 nM; in assay [2], at least 19800 nM; in assay [3], 19800 nM; at S1PR2, 1030 nM; in the assay with HFL-1 cells [4] it was 108 nM; in the assay on HFL-1 cells [5], 91.1 nM.
For the compound `N#Cc1cc2[nH]c(Cc3nn(CC4CCCN4)c(=O)c4ccccc34)nc2cc1OCC(F)F` (centres unmarked) [compound 1, 6-(2,2-difluoro-ethoxy)-2-[[4-oxo-3-(pyrrolidin-2-ylmethyl)-phthalazin-1-yl]-methyl]-3H-benzimidazole-5-carbonitrile], the EC50 in assay [2] is at least 19800 nM; in assay [3], 19800 nM; at S1PR2, 3930 nM; with HFL-1 cells [4], 3320 nM; in the assay on HFL-1 cells [5] it was 15600 nM.
